Test results published in patent US20250145665A1, “MACROCYCLIC PEPTIDES USEFUL AS MODULATORS OF TNF ALPHA” (Bristol-Myers Squibb Company, priority 2023, published 2025).
pIC50: −log10 of the molar value. Like-named read-outs stand apart in the source and are kept apart here. Starred links: 1 amine or outer side, 2 acyl side, 3 side chain; linkers in the order of their positions; H or OH if unused. Positions of bridges follow the written chain, without caps; N, C: chain ends. Non-standard residues stand in square brackets, D forms with d. Residues, ends and D or L forms follow the SMILES beside them. *: point of attachment. X39 = Cn1nc(C(=O)NCc2ccc(-c3ccc(C[C@H](N[*:1])C(=O)[*:2])cc3)cc2)c2ccccc21; X5 = Cn1nc(C(=O)Nc2ccc(-c3ccc(C[C@H](N[*:1])C(=O)[*:2])cc3)cc2)c2ccccc21; X47 = O=C(Nc1ccc(-c2ccc(C[C@H](N[*:1])C(=O)[*:2])cc2)cc1)c1coc2ccccc12; Bip(4'-NH) = O=C([C@H](Cc1ccc(-c2ccc(N[*:3])cc2)cc1)N[*:1])[*:2]; Bip(4'-CONHMe) = CNC(=O)c1ccc(-c2ccc(C[C@H](N)C(=O)O)cc2)cc1; Indazole3carbonyl(1-CH2COOH) = O=C(O)Cn1nc(C(=O)*)c2ccccc21; X70 = O=C([C@H](Cc1ccc(-c2ccc(CN[*:3])cc2)cc1)N[*:1])[*:2]; X18 = N=C(NCCC[C@@H](N[*:1])C(=O)[*:2])NCCc1ccc(O)cc1; X4 = N=C(NCCCc1cccc(N)c1)NCCC[C@@H](N[*:1])C(=O)[*:2]; X6 = N=C(NCCCCC(N)=O)NCCC[C@@H](N[*:1])C(=O)[*:2]; Ala(imidazol-2-yl) = N[C@@H](Cc1ncc[nH]1)C(=O)O; Ala(morpholin-4-yl) = N[C@@H](CN1CCOCC1)C(=O)O; Benzoyl(3-OCH2COOH) = O=C(O)COc1cccc(C(=O)*)c1; Benzoyl(4-OCH2COOH) = O=C(O)COc1ccc(C(=O)*)cc1; X41 = N=C(NCCCO)NCCC[C@@H](N[*:1])C(=O)[*:2]; X12 = N=C(NCCO)NCCC[C@@H](N[*:1])C(=O)[*:2]; Bip = N[C@@H](Cc1ccc(-c2ccccc2)cc1)C(=O)O; X86 = O=C(O)Cn1ccc2cc(C(=O)*)ccc21; Cha = N[C@@H](CC1CCCCC1)C(=O)O; Sar = CNCC(=O)O

Biological target: TNFα (Homo sapiens, UniProt P01375)
Sequence (P01375 77-233 limits assumed): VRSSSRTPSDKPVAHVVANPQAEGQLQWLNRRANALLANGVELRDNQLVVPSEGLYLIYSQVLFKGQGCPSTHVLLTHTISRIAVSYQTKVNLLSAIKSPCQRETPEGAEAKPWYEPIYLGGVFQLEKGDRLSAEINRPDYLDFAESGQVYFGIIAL
Test: TNF-Induced HEK-Blue Assay
Assay type: cell-based
[1] = HEK-Blue-CD40L cells, NF-kB-driven secreted alkaline phosphatase reporter, TNFα 0.5 ng/ml, 18 h, read-out: TNF induced HEK-Blue assay IC50 value

## CC(C)C[C@@H]1NC(=O)[C@H](CCCNC(=N)N)NC(=O)[C@H](C(C)C)NC(=O)[C@@H]2CCCN2C(=O)[C@H](C(C)C)NC(=O)[C@@H](CCCNC(=N)NCCO)NC(=O)[C@H](CC(=O)O)NC(=O)[C@@H]2CCCN2C(=O)CN(C)C(=O)[C@H](Cc2ccc(-c3ccc(NC(=O)c4nn(C)c5ccccc45)cc3)cc2)NC(=O)[C@H](Cc2ccc(-c3ccccc3)cc2)NC(=O)[C@H](CN2CCOCC2)NC(=O)CSC[C@@H](C(=O)NCC(N)=O)NC1=O [Example 388] ({CH2CO}-[Ala(morpholin-4-yl)][Bip][X5][Sar]PD[X12]VPVRLCG-NH2; thioether N-13)
[1]
  pIC50: > 7.30

## CC(C)C[C@@H]1NC(=O)[C@H](CCCNC(=N)N)NC(=O)[C@H](C(C)C)NC(=O)[C@@H]2CCCN2C(=O)[C@H](C(C)C)NC(=O)[C@@H](CCCNC(=N)NCCCO)NC(=O)[C@H](CC(=O)O)NC(=O)[C@@H]2CCCN2C(=O)CN(C)C(=O)[C@H](Cc2ccc(-c3ccc(NC(=O)c4nn(CC(=O)O)c5ccccc45)cc3)cc2)NC(=O)[C@H](Cc2ccc(-c3ccccc3)cc2)NC(=O)[C@H](CN2CCOCC2)NC(=O)CSC[C@@H](C(=O)NCC(N)=O)NC1=O [Example 389] ({CH2CO}-[Ala(morpholin-4-yl)][Bip][Bip(4'-NH)](Indazole3carbonyl(1-CH2COOH))[Sar]PD[X41]VPVRLCG-NH2; thioether N-13)
  pIC50: > 7.30

## CC(C)C[C@@H]1NC(=O)[C@H](CCCNC(=N)N)NC(=O)[C@H](C(C)C)NC(=O)[C@@H]2CCCN2C(=O)[C@H](C(C)C)NC(=O)[C@@H](CCCNC(=N)NCCCCC(N)=O)NC(=O)[C@H](CC(=O)O)NC(=O)[C@@H]2CCCN2C(=O)CN(C)C(=O)[C@H](Cc2ccc(-c3ccc(NC(=O)c4nn(CC(=O)O)c5ccccc45)cc3)cc2)NC(=O)[C@H](Cc2ccc(-c3ccccc3)cc2)NC(=O)[C@H](CN2CCOCC2)NC(=O)CSC[C@@H](C(=O)NCC(N)=O)NC1=O [Example 391] ({CH2CO}-[Ala(morpholin-4-yl)][Bip][Bip(4'-NH)](Indazole3carbonyl(1-CH2COOH))[Sar]PD[X6]VPVRLCG-NH2; thioether N-13)
  pIC50: 6.70 to 7.30

## CC(C)C[C@@H]1NC(=O)[C@H](CCCNC(=N)N)NC(=O)[C@H](C(C)C)NC(=O)[C@@H]2CCCN2C(=O)[C@H](C(C)C)NC(=O)[C@@H](CCCNC(=N)NCCCCC(N)=O)NC(=O)[C@H](CC(=O)O)NC(=O)[C@@H]2CCCN2C(=O)CN(C)C(=O)[C@H](Cc2ccc(-c3ccc(NC(=O)c4nn(C)c5ccccc45)cc3)cc2)NC(=O)[C@H](Cc2ccc(-c3ccccc3)cc2)NC(=O)[C@H](CN2CCOCC2)NC(=O)CSC[C@@H](C(=O)NCC(N)=O)NC1=O [Example 392] ({CH2CO}-[Ala(morpholin-4-yl)][Bip][X5][Sar]PD[X6]VPVRLCG-NH2; thioether N-13)
[1]
  pIC50: 6.70 to 7.30

## CC(C)C[C@@H]1NC(=O)[C@H](CCCNC(=N)N)NC(=O)[C@H](C(C)C)NC(=O)[C@@H]2CCCN2C(=O)[C@H](C(C)C)NC(=O)[C@@H](CCCNC(=N)NCCCc2cccc(N)c2)NC(=O)[C@H](CC(=O)O)NC(=O)[C@@H]2CCCN2C(=O)CN(C)C(=O)[C@H](Cc2ccc(-c3ccc(NC(=O)c4nn(CC(=O)O)c5ccccc45)cc3)cc2)NC(=O)[C@H](Cc2ccc(-c3ccccc3)cc2)NC(=O)[C@H](CN2CCOCC2)NC(=O)CSC[C@@H](C(=O)NCC(N)=O)NC1=O [Example 393] ({CH2CO}-[Ala(morpholin-4-yl)][Bip][Bip(4'-NH)](Indazole3carbonyl(1-CH2COOH))[Sar]PD[X4]VPVRLCG-NH2; thioether N-13)
  pIC50: > 7.30

## CC(C)C[C@@H]1NC(=O)[C@H](CCCNC(=N)N)NC(=O)[C@H](C(C)C)NC(=O)[C@@H]2CCCN2C(=O)[C@H](C(C)C)NC(=O)[C@@H](CCCNC(=N)NCCCc2cccc(N)c2)NC(=O)[C@H](CC(=O)O)NC(=O)[C@@H]2CCCN2C(=O)CN(C)C(=O)[C@H](Cc2ccc(-c3ccc(NC(=O)c4nn(C)c5ccccc45)cc3)cc2)NC(=O)[C@H](Cc2ccc(-c3ccccc3)cc2)NC(=O)[C@H](CN2CCOCC2)NC(=O)CSC[C@@H](C(=O)NCC(N)=O)NC1=O [Example 394] ({CH2CO}-[Ala(morpholin-4-yl)][Bip][X5][Sar]PD[X4]VPVRLCG-NH2; thioether N-13)
[1]
  pIC50: 6.70 to 7.30

## CC[C@H](C)[C@@H]1NC(=O)[C@@H](CCCNC(=N)N)NC(=O)[C@H](CC(=O)O)NC(=O)[C@H](Cc2cnc[nH]2)NC(=O)CN(C)C(=O)[C@H](Cc2ccc(-c3ccc(NC(=O)c4ccc(OCC(=O)O)cc4)cc3)cc2)NC(=O)[C@H](Cc2ccc(-c3ccc(C(=O)NC)cc3)cc2)NC(=O)[C@H](CC2CCCCC2)NC(=O)CSC[C@@H](C(=O)NCC(N)=O)NC(=O)[C@H](CC(C)C)NC(=O)[C@H](Cc2cnc[nH]2)NC(=O)[C@H](C(C)C)NC(=O)[C@@H]2CCCN2C1=O [Example 395] ({CH2CO}-[Cha][Bip(4'-CONHMe)][Bip(4'-NH)](Benzoyl(4-OCH2COOH))[Sar]HD[dR]IPVHLCG-NH2; thioether N-13)
[1]
  pIC50: > 7.30

## CC[C@H](C)[C@@H]1NC(=O)[C@@H](CCCNC(=N)N)NC(=O)[C@H](CC(=O)O)NC(=O)[C@H](Cc2cnc[nH]2)NC(=O)CN(C)C(=O)[C@H](Cc2ccc(-c3ccc(C(=O)NC)cc3)cc2)NC(=O)[C@H](Cc2ccc(-c3ccccc3)cc2)NC(=O)[C@H](CC2CCCCC2)NC(=O)CSC[C@@H](C(=O)NCC(N)=O)NC(=O)[C@H](CC(C)C)NC(=O)[C@H](Cc2cnc[nH]2)NC(=O)[C@H](C(C)C)NC(=O)[C@@H]2CCCN2C1=O [Example 396] ({CH2CO}-[Cha][Bip][Bip(4'-CONHMe)][Sar]HD[dR]IPVHLCG-NH2; thioether N-13)
[1]
  pIC50: > 7.30

## CC[C@H](C)[C@@H]1NC(=O)[C@@H](CCCNC(=N)N)NC(=O)[C@H](CC(=O)O)NC(=O)[C@H](Cc2cnc[nH]2)NC(=O)CN(C)C(=O)[C@H](Cc2ccc(-c3ccccc3)cc2)NC(=O)[C@H](Cc2ccc(-c3ccc(C(=O)NC)cc3)cc2)NC(=O)[C@H](CC2CCCCC2)NC(=O)CSC[C@@H](C(=O)NCC(N)=O)NC(=O)[C@H](CC(C)C)NC(=O)[C@H](Cc2cnc[nH]2)NC(=O)[C@H](C(C)C)NC(=O)[C@@H]2CCCN2C1=O [Example 397] ({CH2CO}-[Cha][Bip(4'-CONHMe)][Bip][Sar]HD[dR]IPVHLCG-NH2; thioether N-13)
[1]
  pIC50: 6.70 to 7.30

## CC(C)C[C@@H]1NC(=O)[C@H](CCCNC(=N)N)NC(=O)[C@H](C(C)C)NC(=O)[C@@H]2CCCN2C(=O)[C@H](C(C)C)NC(=O)[C@@H](CCCNC(=N)N)NC(=O)[C@H](CC(=O)O)NC(=O)[C@@H]2CCCN2C(=O)CN(C)C(=O)[C@H](Cc2ccc(-c3ccc(NC(=O)c4ccc5c(ccn5CC(=O)O)c4)cc3)cc2)NC(=O)[C@H](Cc2ccc(-c3ccccc3)cc2)NC(=O)[C@H](CN2CCOCC2)NC(=O)CSC[C@@H](C(=O)NCC(N)=O)NC1=O [Example 398] ({CH2CO}-[Ala(morpholin-4-yl)][Bip][Bip(4'-NH)](X86)[Sar]PD[dR]VPVRLCG-NH2; thioether N-13)
[1]
  pIC50: > 7.30

## CC[C@H](C)[C@@H]1NC(=O)[C@@H]2CCCN2C(=O)[C@H]([C@@H](C)CC)NC(=O)[C@@H](CCCNC(=N)N)NC(=O)[C@H](CC(=O)O)NC(=O)[C@H](Cc2ccccc2)NC(=O)CN(C)C(=O)[C@H](Cc2ccc(-c3ccc(CNC(=O)c4cccc(OCC(=O)O)c4)cc3)cc2)NC(=O)[C@H](Cc2ccc(-c3ccccc3)cc2)NC(=O)[C@H](CC2CCCCC2)NC(=O)CSC[C@@H](C(=O)NCC(N)=O)NC(=O)[C@H](CC(C)C)NC(=O)[C@H](Cc2ncc[nH]2)NC1=O [Example 399] ({CH2CO}-[Cha][Bip][X70](Benzoyl(3-OCH2COOH))[Sar]FD[dR]IPI[Ala(imidazol-2-yl)]LCG-NH2; thioether N-13)
[1]
  pIC50: 5.70 to 6.70

## CC[C@H](C)[C@@H]1NC(=O)[C@@H]2CCCN2C(=O)[C@H]([C@@H](C)CC)NC(=O)[C@@H](CCCNC(=N)N)NC(=O)[C@H](CC(=O)O)NC(=O)[C@H](Cc2ccccc2)NC(=O)CN(C)C(=O)[C@H](Cc2ccc(-c3ccc(CNC(=O)c4nn(C)c5ccccc45)cc3)cc2)NC(=O)[C@H](Cc2ccc(-c3ccccc3)cc2)NC(=O)[C@H](CC2CCCCC2)NC(=O)CSC[C@@H](C(=O)NCC(N)=O)NC(=O)[C@H](CC(C)C)NC(=O)[C@H](Cc2cnc[nH]2)NC1=O [Example 400] ({CH2CO}-[Cha][Bip][X39][Sar]FD[dR]IPIHLCG-NH2; thioether N-13)
[1]
  pIC50: 5.70 to 6.70

## CC[C@H](C)[C@@H]1NC(=O)[C@@H]2CCCN2C(=O)[C@H]([C@@H](C)CC)NC(=O)[C@@H](CCCNC(=N)N)NC(=O)[C@H](CC(=O)O)NC(=O)[C@H](Cc2ccccc2)NC(=O)CN(C)C(=O)[C@H](Cc2ccc(-c3ccc(NC(=O)c4coc5ccccc45)cc3)cc2)NC(=O)[C@H](Cc2ccc(-c3ccccc3)cc2)NC(=O)[C@H](CC2CCCCC2)NC(=O)CSC[C@@H](C(=O)NCC(N)=O)NC(=O)[C@H](CC(C)C)NC(=O)[C@H](Cc2ncc[nH]2)NC1=O [Example 401] ({CH2CO}-[Cha][Bip][X47][Sar]FD[dR]IPI[Ala(imidazol-2-yl)]LCG-NH2; thioether N-13)
[1]
  pIC50: 6.70 to 7.30

## CC[C@H](C)[C@@H]1NC(=O)[C@@H]2CCCN2C(=O)[C@H]([C@@H](C)CC)NC(=O)[C@@H](CCCNC(=N)N)NC(=O)[C@H](CC(=O)O)NC(=O)[C@H](Cc2ccccc2)NC(=O)CN(C)C(=O)[C@H](Cc2ccc(-c3ccc(NC(=O)c4nn(C)c5ccccc45)cc3)cc2)NC(=O)[C@H](Cc2ccc(-c3ccccc3)cc2)NC(=O)[C@H](CC2CCCCC2)NC(=O)CSC[C@@H](C(=O)NCC(N)=O)NC(=O)[C@H](CC(C)C)NC(=O)[C@H](Cc2ncc[nH]2)NC1=O [Example 402] ({CH2CO}-[Cha][Bip][X5][Sar]FD[dR]IPI[Ala(imidazol-2-yl)]LCG-NH2; thioether N-13)
[1]
  pIC50: 6.70 to 7.30

## CC(C)C[C@@H]1NC(=O)[C@H](CCCNC(=N)N)NC(=O)[C@H](C(C)C)NC(=O)[C@@H]2CCCN2C(=O)[C@H](C(C)C)NC(=O)[C@@H](CCCNC(=N)NCCc2ccc(O)cc2)NC(=O)[C@H](CC(=O)O)NC(=O)[C@@H]2CCCN2C(=O)CN(C)C(=O)[C@H](Cc2ccc(-c3ccc(NC(=O)c4nn(CC(=O)O)c5ccccc45)cc3)cc2)NC(=O)[C@H](Cc2ccc(-c3ccccc3)cc2)NC(=O)[C@H](CN2CCOCC2)NC(=O)CSC[C@@H](C(=O)NCC(N)=O)NC1=O [Example 403] ({CH2CO}-[Ala(morpholin-4-yl)][Bip][Bip(4'-NH)](Indazole3carbonyl(1-CH2COOH))[Sar]PD[X18]VPVRLCG-NH2; thioether N-13)
  pIC50: 6.70 to 7.30
